# ChEMBL document CHEMBL1124209, “Phosphonoformate and phosphonoacetate derivatives of 5-substituted 2'-deoxyuridines: synthesis and antiviral activity” (1988)
# How the values were obtained:
# Format in all cases: functional
# Human alphaherpesvirus 2 [1] = experiment: Minimum inhibitory concentration of compound causing 50% inhibition of cytopathic effect induced by HSV-2 in PRK cells
# Human alphaherpesvirus 1 [2] = experiment: Minimum inhibitory concentration causing 25% inhibition of cytopathic effect induced by Herpes simplex virus(HSV) -1 (thymidine kinase deficient) in vero cells
# Human alphaherpesvirus 1 [3] = experiment: Minimum inhibitory concentration of compound causing 50% inhibition of cytopathic effect induced by HSV-1(thymidine kinase deficient) in PRK cells
# Oryctolagus cuniculus [4] = species: Oryctolagus cuniculus; experiment: Minimum cytotoxic concentration causing toxic effects on uninfected cells in rabbit
# Human alphaherpesvirus 2 [5] = experiment: Minimum inhibitory concentration causing 25% inhibition of cytopathic effect induced by Herpes simplex virus(HSV) -2 (thymidine kinase deficient) in HEp-2 cells
# Human alphaherpesvirus 2 [6] = experiment: Minimum inhibitory concentration causing 25% inhibition cytopathic effect induced by Herpes simplex virus(HSV) -2 (thymidine kinase deficient) in vero cells
# Mus musculus [7] = experiment: Mean duration of lesions in HSV-1 infected mice, after administration of 0.3 % of compound intracutaneously
# Human alphaherpesvirus 1 [8] = experiment: Minimum inhibitory concentration causing 25% inhibition of cytopathic effect induced by Herpes simplex virus-1 (Brand) in vero cells
# Oryctolagus cuniculus [9] = species: Oryctolagus cuniculus; experiment: Minimum cytotoxic concentration of compound causing toxic effects on uninfected cells
# Human alphaherpesvirus 1 [10] = experiment: Minimum inhibitory concentration causing 25% inhibition of cytopathic effect induced by herpes simplex virus (HSV)-1 (K979) in vero cells.
# Human alphaherpesvirus 1 [11] = experiment: Minimum inhibitory concentration causing 25% inhibition of cytopathic effect induced by Herpes simplex virus-1 (K979) in HEp-2 cells
# Mus musculus [12] = experiment: Cumulative lesions in HSV-1 infected mice, after administration of 0.1 % of compound intracutaneously
# Mus musculus [13] = experiment: Cumulative lesions in HSV-1 infected mice, after administration of 0.3 % of compound intracutaneously
# Human alphaherpesvirus 1 [14] = experiment: Minimum inhibitory concentration causing 25% inhibition cytopathic effect induced by Herpes simplex virus-1 (Brand) in HEp-2 cells
# Human alphaherpesvirus 1 [15] = experiment: Cumulative mortality in percent of HSV-1 infected mice, after intraperitoneal administration of 0.5 mg/kg of compound
# Human alphaherpesvirus 1 [16] = experiment: Mean survival time in HSV-1 infected mice, after intraperitoneal administration of 0.5 mg/kg of compound
# Human alphaherpesvirus 1 [17] = experiment: Minimum inhibitory concentration of compound causing 50% inhibition of cytopathic effect induced by HSV-1 in PRK cells
# Human alphaherpesvirus 1 [18] = experiment: Minimum inhibitory concentration causing 25% inhibition cytopathic effect induced by Herpes simplex virus(HSV) -1 (thymidine kinase deficient) in HEp-2 cells
# Human alphaherpesvirus 1 [19] = experiment: Cumulative mortality in percent of HSV-1 infected mice, after peroral administration of 5 mg/kg of compound; conditions: route oral
# Human alphaherpesvirus 1 [20] = experiment: Mean survival time in HSV-1 infected mice, after peroral administration of 5 mg/kg of compound; conditions: route oral
# Mus musculus [21] = experiment: Mean duration of lesions in HSV-1 infected mice, after administration of 0.1 % of compound intracutaneously
# Mus musculus [22] = experiment: Cumulative mortality in percent of HSV-1 (KOS strain) infected mice, after peroral administration of 100 mg/kg of compound; conditions: route oral
# Human alphaherpesvirus 1 [23] = experiment: Minimum inhibitory concentration causing 50% inhibition of cytopathic effect induced by HSV-1 in PRK cells
# Human alphaherpesvirus 1 [24] = experiment: (§1) Minimum inhibitory concentration causing 50% inhibition of cytopathic effect induced by HSV-2 in PRK cells
# Human alphaherpesvirus 1 [25] = experiment: Minimum inhibitory concentration causing 50% inhibition of cytopathic effect induced by HSV-1(thymidine kinase deficient) in PRK cells
# Mus musculus [26] = experiment: Cumulative mortality in percent of HSV-1 infected mice, after peroral administration of 100 mg/kg of compound; conditions: route oral
# Human alphaherpesvirus 2 [27] = experiment: as §1
# Human alphaherpesvirus 1 [28] = experiment: Minimum inhibitory concentration causing 50% inhibition of cytopathic effect induced by HSV-1 (thymidine kinase deficient) in PRK cells
# Human alphaherpesvirus 1 [29] = experiment: Cumulative mortality in percent of HSV-1 infected mice, after peroral administration of 10 mg/kg of compound; conditions: route oral
# Human alphaherpesvirus 1 [30] = experiment: Mean survival time in HSV-1 infected mice, after peroral administration of 10 mg/kg of compound; conditions: route oral
# Human alphaherpesvirus 1 [31] = experiment: Cumulative mortality in percent of HSV-1 infected mice, after intraperitoneal administration of 5 mg/kg of compound
# Human alphaherpesvirus 2 [32] = experiment: Minimum inhibitory concentration causing 25% inhibition of cytopathic effect induced by Herpes simplex virus(HSV) -2 (thymidine kinase deficient) in vero cells
# Human alphaherpesvirus 1 [33] = experiment: Mean survival time in HSV-1 infected mice, after intraperitoneal administration of 5 mg/kg of compound
# Human alphaherpesvirus 1 [34] = experiment: Minimum inhibitory concentration causing 25% inhibition of cytopathic effect induced by Herpes simplex virus(HSV) -1 (thymidine kinase deficient) in HEp-2 cells
# Human alphaherpesvirus 1 [35] = experiment: Mean survival time in HSV-1 infected mice, after intraperitoneal administration of 1 mg/kg of compound
# Human alphaherpesvirus 1 [36] = experiment: Cumulative mortality in percent of HSV-1 infected mice, after intraperitoneal administration of 1 mg/kg of compound
# Human alphaherpesvirus 1 [37] = experiment: Cumulative mortality in percent of HSV-1 infected mice, after peroral administration of 1 mg/kg of compound; conditions: route oral
# Human alphaherpesvirus 1 [38] = experiment: Mean survival time in HSV-1 infected mice, after peroral administration of 1 mg/kg of compound; conditions: route oral
# Human alphaherpesvirus 1 [39] = experiment: Minimum inhibitory concentration causing 25% inhibition of cytopathic effect induced by Herpes simplex virus(HSV) -1 (Brand) in HEp-2 cells
compound,measurement,setting,value
O=c1[nH]c(=O)n([C@H]2C[C@H](O)[C@@H](CO)O2)cc1CCCl,MIC,Human alphaherpesvirus 2 [1],34.2 µM
same,MIC,Human alphaherpesvirus 1 [2],34.2 µM
same,MIC,Human alphaherpesvirus 1 [3],> 1370 µM
same,MTC,Oryctolagus cuniculus [4],1127 µM
same,MIC,Human alphaherpesvirus 2 [5],> 342 µM
same,MIC,Human alphaherpesvirus 2 [6],> 342 µM
same,MDL,Mus musculus [7],0.9 days
same,MIC,Human alphaherpesvirus 1 [8],0.03 µM
same,MTC,Oryctolagus cuniculus [9],>1366 µM
same,MIC,Human alphaherpesvirus 1 [10],102 µM
same,MIC,Human alphaherpesvirus 1 [11],10.2 µM
same,lesions,Mus musculus [12],40
same,lesions,Mus musculus [13],17
same,MIC,Human alphaherpesvirus 1 [14],0.1 µM
same,CMP,Human alphaherpesvirus 1 [15],35
same,MST,Human alphaherpesvirus 1 [16],16.7 days
same,MIC,Human alphaherpesvirus 1 [17],0.3 µM
same,MIC,Human alphaherpesvirus 1 [18],> 342 µM
same,CMP,Human alphaherpesvirus 1 [19],10
same,MST,Human alphaherpesvirus 1 [20],19 days
same,MDL,Mus musculus [21],2.4 days
CCOC(=O)CP(=O)(O)OC[C@H]1O[C@@H](n2cc(/C=C/Br)c(=O)[nH]c2=O)C[C@@H]1O,CMP,Mus musculus [22],80
same,MIC,Human alphaherpesvirus 1 [23],41.4 µM
same,MIC,Human alphaherpesvirus 1 [24],> 828 µM
same,MTC,Oryctolagus cuniculus [4],>=828 uM
same,MIC,Human alphaherpesvirus 1 [25],> 828 µM
CCOC(=O)P(=O)(O)OC[C@H]1O[C@@H](n2cc(/C=C\Br)c(=O)[nH]c2=O)C[C@@H]1O,MIC,Human alphaherpesvirus 1 [23],4.1 µM
same,CMP,Mus musculus [26],70
same,MIC,Human alphaherpesvirus 2 [27],> 81.1 µM
same,MTC,Oryctolagus cuniculus [4],>=81.1 uM
same,MIC,Human alphaherpesvirus 1 [25],> 81.1 µM
COC(=O)P(=O)(O)OC[C@H]1O[C@@H](n2cc(/C=C\Br)c(=O)[nH]c2=O)C[C@@H]1O,CMP,Mus musculus [22],50
same,MIC,Human alphaherpesvirus 1 [23],1.5 µM
same,MIC,Human alphaherpesvirus 2 [27],> 87.9 µM
same,MTC,Oryctolagus cuniculus [4],>=87.9 uM
same,MIC,Human alphaherpesvirus 1 [28],> 87.9 µM
CCOC(=O)CP(=O)(OC)OC[C@H]1O[C@@H](n2cc(I)c(=O)[nH]c2=O)C[C@@H]1O (stereo partly specified),MIC,Human alphaherpesvirus 1 [2],57.9 µM
same,MTC,Oryctolagus cuniculus [4],193 µM
same,MIC,Human alphaherpesvirus 2 [5],193 µM
same,MIC,Human alphaherpesvirus 2 [6],> 193 µM
same,MIC,Human alphaherpesvirus 1 [8],1.9 µM
same,MIC,Human alphaherpesvirus 1 [10],57.9 µM
same,MIC,Human alphaherpesvirus 1 [11],57.9 µM
same,MIC,Human alphaherpesvirus 1 [14],5.8 µM
same,MIC,Human alphaherpesvirus 1 [18],1.9 µM
O=C(CP(=O)(O)O)OC[C@H]1O[C@@H](n2cc(CCCl)c(=O)[nH]c2=O)C[C@@H]1O,MIC,Human alphaherpesvirus 1 [2],72.7 µM
same,MTC,Oryctolagus cuniculus [4],800 µM
same,MIC,Human alphaherpesvirus 2 [5],242 µM
same,CMP,Human alphaherpesvirus 1 [29],42
same,MST,Human alphaherpesvirus 1 [30],16.3 days
same,CMP,Human alphaherpesvirus 1 [31],17
same,MDL,Mus musculus [7],2.4 days
same,MIC,Human alphaherpesvirus 2 [32],72.7 µM
same,MIC,Human alphaherpesvirus 1 [8],24.2 µM
same,MST,Human alphaherpesvirus 1 [33],18.3 days
same,MIC,Human alphaherpesvirus 1 [10],> 242 µM
same,MIC,Human alphaherpesvirus 1 [11],> 242 µM
same,MIC,Human alphaherpesvirus 1 [34],242 µM
same,MST,Human alphaherpesvirus 1 [35],16 days
same,CMP,Human alphaherpesvirus 1 [36],33
same,lesions,Mus musculus [13],40
same,MIC,Human alphaherpesvirus 1 [14],24.2 µM
same,CMP,Human alphaherpesvirus 1 [15],75
same,CMP,Human alphaherpesvirus 1 [37],67
same,MST,Human alphaherpesvirus 1 [16],12.2 days
same,MST,Human alphaherpesvirus 1 [38],11.8 days
same,CMP,Human alphaherpesvirus 1 [19],50
same,MST,Human alphaherpesvirus 1 [20],15.3 days
COP(=O)(CC(=O)OC[C@H]1O[C@@H](n2cc(I)c(=O)[nH]c2=O)C[C@@H]1O)OC,MIC,Human alphaherpesvirus 1 [39],0.2 µM
same,MIC,Human alphaherpesvirus 1 [2],2 µM
same,MTC,Oryctolagus cuniculus [4],655 µM
same,MIC,Human alphaherpesvirus 2 [32],59.5 µM
same,MIC,Human alphaherpesvirus 1 [8],0.6 µM
same,MIC,Human alphaherpesvirus 1 [10],5.9 µM
same,MIC,Human alphaherpesvirus 1 [11],198 µM
same,MIC,Human alphaherpesvirus 1 [34],> 198 µM
